Laboratory results as given in PubChem BioAssay AID184 (DTP/NCI, 2004).
Several values for one entry are separate records, joined by “and”; a condition that tells them apart may be missing. Equal values may be shown once. Inconclusive results and toxic doses are left out.

System: BALB/cJ mice, ADJ-PC-6 ip tumor, median survival T/C
Assay: NCI In Vivo Anticancer Drug Screen. Data for tumor model ADJ-PC-6 (intraperitoneal) in BALB/cJ mice
Details: endpoint: median survival time, higher = longer survival
Protocol: The antitumor activity of compounds was measured in mice bearing transplantable tumors. Survival or tumor size were measured and the results are expressed as the measurement made in the treated group (T) divided by the measurement made in the vehicle treated control group (C). The tumor model used in this assay is ADJ-PC-6 (intraperitoneal) in BALB/cJ mice

SMILES: O=C1c2c(O)ccc(O)c2C(=O)c2c(NCCNCCO)ccc(NCCNCCO)c21
- T/C (dose: 0.38 mg/kg/injection, schedule: Q04DX003 (ip), vehicle: saline): 155 % of control and 267 % of control
- T/C (dose: 0.38 mg/kg/injection, schedule: Q04DX003 (iv), vehicle: saline): 89 % of control
- T/C (dose: 0.5 mg/kg/injection, schedule: Q04DX003 (ip), vehicle: saline): 188 % of control
- T/C (dose: 0.5 mg/kg/injection, schedule: Q04DX003 (ip), vehicle: water): 186 % of control
- T/C (dose: 0.75 mg/kg/injection, schedule: Q04DX003 (ip), vehicle: saline): 179 % of control and 267 % of control
- T/C (dose: 1.0 mg/kg/injection, schedule: Q04DX003 (ip), vehicle: saline): 207 % of control
- T/C (dose: 1.0 mg/kg/injection, schedule: Q04DX003 (ip), vehicle: water): 195 % of control
- T/C (dose: 1.5 mg/kg/injection, schedule: Q04DX003 (ip), vehicle: saline): 194 % of control and 267 % of control
- T/C (dose: 1.5 mg/kg/injection, schedule: Q04DX003 (iv), vehicle: saline): 153 % of control and 217 % of control
- T/C (dose: 2.0 mg/kg/injection, schedule: Q04DX003 (ip), vehicle: saline): 342 % of control
- T/C (dose: 2.0 mg/kg/injection, schedule: Q04DX003 (ip), vehicle: water): 235 % of control
- T/C (dose: 3.0 mg/kg/injection, schedule: Q04DX003 (ip), vehicle: saline): 194 % of control and 267 % of control
- T/C (dose: 3.0 mg/kg/injection, schedule: Q04DX003 (iv), vehicle: saline): 155 % of control and 232 % of control
- T/C (dose: 4.0 mg/kg/injection, schedule: Q04DX003 (ip), vehicle: saline): 160 % of control
- T/C (dose: 6.0 mg/kg/injection, schedule: Q04DX003 (iv), vehicle: saline): 179 % of control and 267 % of control

SMILES: CN1N=C(N)c2cn(C3OC(COP(=O)(O)O)C(O)C3O)c3ncnc1c23 (stereo unspecified)
- T/C (dose: 12.5 mg/kg/injection, schedule: Q04DX003 (ip), vehicle: saline): 222 % of control
- T/C (dose: 12.5 mg/kg/injection, schedule: Q04DX003 (ip), vehicle: water): 471 % of control
- T/C (dose: 25.0 mg/kg/injection, schedule: Q04DX003 (ip), vehicle: saline): 222 % of control
- T/C (dose: 25.0 mg/kg/injection, schedule: Q04DX003 (ip), vehicle: water): 471 % of control
- T/C (dose: 50.0 mg/kg/injection, schedule: Q04DX003 (ip), vehicle: saline): 222 % of control and 275 % of control and 369 % of control
- T/C (dose: 50.0 mg/kg/injection, schedule: Q04DX003 (ip), vehicle: water): 471 % of control
- T/C (dose: 100.0 mg/kg/injection, schedule: Q04DX003 (ip), vehicle: saline): 222 % of control and 275 % of control and 369 % of control
- T/C (dose: 100.0 mg/kg/injection, schedule: Q04DX003 (ip), vehicle: water): 471 % of control
- T/C (dose: 200.0 mg/kg/injection, schedule: Q04DX003 (ip), vehicle: saline): 275 % of control and 369 % of control

SMILES: CN(Cc1cnc2nc(N)nc(N)c2n1)c1ccc(C(=O)N[C@@H](CCC(=O)O)C(=O)O)cc1
- T/C (dose: 1.25 mg/kg/injection, schedule: Q04DX003 (ip), vehicle: sodium bicarbonate): 97 % of control
- T/C (dose: 2.5 mg/kg/injection, schedule: Q04DX003 (ip), vehicle: sodium bicarbonate): 110 % of control
- T/C (dose: 5.0 mg/kg/injection, schedule: Q04DX003 (ip), vehicle: sodium bicarbonate): 104 % of control and 111 % of control
- T/C (dose: 10.0 mg/kg/injection, schedule: Q04DX003 (ip), vehicle: sodium bicarbonate): 124 % of control
- T/C (dose: 20.0 mg/kg/injection, schedule: Q04DX003 (ip), vehicle: sodium bicarbonate): 93 % of control and 124 % of control
- T/C (dose: 40.0 mg/kg/injection, schedule: Q04DX003 (ip), vehicle: sodium bicarbonate): 156 % of control

SMILES: N[C@H](C(=O)O)[C@@H]1CC(Cl)=NO1
- T/C (dose: 1.0 mg/kg/injection, schedule: Q01DX009 (ip), vehicle: saline): 121 % of control

SMILES: COc1cc([C@@H]2c3cc4c(cc3[C@@H](OC3OC5COC(C)OC5C(O)C3O)[C@H]3COC(=O)[C@H]23)OCO4)cc(OC)c1O (stereo partly specified)
- T/C (dose: 5.0 mg/kg/injection, schedule: Q04DX003 (ip), vehicle: saline): 201 % of control
- T/C (dose: 6.25 mg/kg/injection, schedule: Q04DX003 (ip), vehicle: saline with Tween-80): 224 % of control
- T/C (dose: 10.0 mg/kg/injection, schedule: Q04DX003 (ip), vehicle: saline): 337 % of control
- T/C (dose: 12.5 mg/kg/injection, schedule: Q04DX003 (ip), vehicle: saline with Tween-80): 247 % of control
- T/C (dose: 20.0 mg/kg/injection, schedule: Q04DX003 (ip), vehicle: saline): 355 % of control
- T/C (dose: 25.0 mg/kg/injection, schedule: Q04DX003 (ip), vehicle: saline with Tween-80): 337 % of control
- T/C (dose: 40.0 mg/kg/injection, schedule: Q04DX003 (ip), vehicle: saline): 355 % of control
- T/C (dose: 50.0 mg/kg/injection, schedule: Q04DX003 (ip), vehicle: saline with Tween-80): 337 % of control
- T/C (dose: 80.0 mg/kg/injection, schedule: Q04DX003 (ip), vehicle: saline): 355 % of control
- T/C (dose: 100.0 mg/kg/injection, schedule: Q04DX003 (ip), vehicle: saline with Tween-80): 337 % of control
